Read-outs that look alike come from different tables or passages of the source.
Assays:
[1] = test system: algae; assay: Lipid enhancement with glycerol (algae re-suspended in salts solution); assay type: cell-based; settings: 0.5, 1 and 5 g/L glycerol (all systems), within 24 h; pH 5; then decreased slightly
Method: The specific procedure was: • i. […] Rotate 20 min at 40% output (Glas-Col) • vi. Centrifuge at 3620 g for 5 min • vii.
Algae were first cultured and then collected by centrifuge.
The thin layer chromatography analysis was performed the same as in Experiment 2.

[2] = test system: algae; settings: 0.5 g/L sodium acetate, within 6 hours, increased from 40%; pH 5; then decreased
Method: For the dry weight analysis, algal cells were collected by centrifuging at 300 g for 10 min. After washing with deionized water once, the precipitant of the sample was transferred to pre-weighed aluminum plates and dried to a constant weight in an oven at 70 degrees C.
For the lipid analysis, the algal cells were collected at 300 g for 10 min. Then the lipid content of the precipitant from the sample was analyzed with the same lipid extraction procedure, which is modified from the Folch method. The specific procedure was: • i. Add 8 mL of chloroform and methanol mixture (2:1, v/v) to the sample • ii. Add 0.1 mL of HCl (5 M) to the sample • iii. Gradually add deionized water to the sample until a second phase appears • iv. Vortex for 3 min at full power (Vortex-Genie 2) • v. Rotate 20 min at 40% output (Glas-Col) • vi. Centrifuge at 3620 g for 5 min • vii. Collect the lower chloroform phase into a pre-weighed drying vessel • viii. Add 5 mL of chloroform and methanol mixture (2:1, v/v) to the sample and repeat steps iv, v, vi and vii • ix. Air dry the vessel to a constant weight and measure the weight.
Algae were first cultured and then collected by centrifuge. After washing with deionized water once, algae were re-suspended into salts solution (Table 1). […] During the batch studies, the pH of all systems was maintained at 5 with 0.05 mol/L NaOH and 0.05 mol/L HCl. […]

`OCC(O)CO` [glycerol] was tested, and the lipid content [1] was “about 40 % of the dry weight”.

For `CC(=O)[O-].[Na+]` [sodium acetate], the lipid content [2] was 65 % of the dry weight.
